In US6589747B2, “Method for identifying compounds that modulate the interaction of amyloid beta or its aggregates with a voltage gated sodium channel” (priority 1999, dated 2003):

Tests used:
[1] = system: fast inward sodium channels (TTX-sensitive) of rat hippocampal neurons; experiment: Aggregation time course versus impact on inward sodium current and other neuronal parameters; format: cell-based
[2] = system: fast inward sodium channel (TTX-sensitive) of isolated rat hippocampal neurons; experiment: Voltage-clamp recording of fast inward sodium current (INa); format: cell-based
[3] = system: isolated adult rat cortical and hippocampal neurons; experiment: Current-clamp recording of resting membrane potential and action potentials of single neurons (suction pipette); format: cell-based
Description: (§1) For all studies as described herein, single neurons freshly dissociated from adult rats (Chad et al, In, Cellular Neurobiology, Ed. J. Chad and H. Wheal, Oxford University Press (1991)) were examined using the suction pipette method (Lee et al., J. Neurosc. Methods, 2; 51-78 (1980)) under current- or voltage-clamp, with use of an Axopatch 200 Amplifier (Axon Instruments, Foster City, Calif.). Amyloid β1-40 was obtained from Polypeptide Laboratories, Torrance, Calif., or from Bachem Biochemica, Heidelberg, Germany.
Shaken aggregation assays (i.e., as in Examples 1-4) were performed as described previously (e.g., Findeis et al., Biochemistry, 38, 6791-6800 (1999)). This aggregation performed prior to use of the aggregated amyloid for contacting cells was done in the same media as the cells were contained, i.e., Hank's Balanced Salt Solution. Aggregation of amyloid for kinetic studies (i.e., as in Example 5), was done in a buffer composed of 10 mM phosphate, 100 mM NaCl, pH 7.4. […] At given times, the turbidities of the reaction mixture were read by measuring light scattering at 405 nm in a Molecular Devices (Menlo Park, Calif.) Vmax Microplate Reader. […]
In current-clamp, the resting membrane potential and action potentials of single neurons were continuously monitored for at least 10-20 minutes until the neuronal activity became stable. […]

[4] = system: calcium ion channel of isolated hippocampal neurons; experiment: Voltage-clamp recording of neuronal inward calcium current; format: cell-based, rat; conditions: 50 μM amyloid β 1-40, about 70 minutes shake-induced aggregation
Description: as §1
In this experiment, the effect of amyloid β 1-40 on the calcium ion channel was studied using the methods described in Experiment 2 for the sodium channel.

[5] = system: potassium ion channel of isolated neurons; experiment: Voltage-clamp recording of potassium currents; format: cell-based, rat
Description: as §1
In this experiment, the effect of amyloid β 1-40 on the potassium ion channel was studied using the methods described in Experiment 2 for the sodium channel.
In voltage-clamp, within the first 2-5 minutes, in some cells the peptide induced an outward holding current measuring about 10-50 pA, but this small current was enough to hyperpolarize the resting membrane potential from −50 mV to −90 mV. In other cells, the peptide instead caused a gradual depolarization to about −40 mV due to a slight inhibition of the outward holding current. In all cells, amyloid β 1-40 blocked the delayed outward potassium current by about 30-40% at all step potentials.

Monomers of amyloid β 1-40: Non-aggregated monomeric form of amyloid β 1-40
impact on the parameters assessed (resting potential, action potential, sodium, calcium, potassium channels) ([1]; monomeric form, before aggregation): did not show significant impact

NC1=N[C@H](O)[C@H]2[C@H]3O[C@]4(O)O[C@@H]([C@@H](O)[C@@]2(N1)[C@@H]4O)[C@]3(O)CO [tetrodotoxin (TTX), tetrodotoxin]
sensitivity of fast inward sodium current to blocker [2]: sensitive

amyloid β 1-40
reversibility of effect on fast inward sodium current on wash out ([2]; 50 μM amyloid β 1-40, about 90 and 120 minutes shake-induced aggregation, hippocampal neuron): cannot wash out | block of fast inward sodium current ([2]; 10-50 μM amyloid β 1-40 aggregated for various times, in about 5-30 minutes, holding potential −50 to −80 mV): ≤ 90% | effect on action potentials ([3]; 11.5 μM amyloid β 1-40 added to cortical and hippocampal neurons): abrogation of action potentials | time of peptide exposure until action potentials disappeared altogether in most neurons ([3]; 10-50 μM amyloid β 1-40 preaggregated for different times): 20 to 30 min | effect on neuronal inward calcium currents [4]: depress neuronal inward calcium currents | block of delayed outward potassium current ([5]; all cells, at all step potentials): 30-40% | resting membrane potential after hyperpolarization (from −50 mV) ([5]; cells in which an outward holding current was induced): −90 mV | membrane potential after gradual depolarization ([5]; other cells, slight inhibition of the outward holding current): about −40 mV | induced outward holding current ([5]; voltage-clamp, within the first 2-5 minutes, in some cells): 10-50 pA | time of shake-induced aggregation giving peak impact on sodium channel activity (% decrease in INa) ([1]; 50 μM amyloid β 1-40): 60 to 80 min | inhibition level of the fast inward sodium channels after saturation of peptide aggregation ([1]; after reaching saturation of aggregation, mean values of four experiments): > 50%

low molecular weight peptide aggregates of amyloid β 1-40 monomer: Low molecular weight aggregates (e.g. tetramer) of amyloid β 1-40
relative potency for inhibiting the fast inward sodium channels ([1]; compared with monomers or polymers): higher potency
